Data taken from US20050175555A1, “Polyunsaturated linear aldehydes and their derivatives with anti-radical and anti-tumoral activity” (priority 2002, published 2005).

Test system: UV-induced erythema
Assay: UV-induced erythema prevention test
Format: in vivo
Conditions: guinea pig ear, UV lamp 30 sec, 10% suspension topical, approx. 3 hours
Description: UV-induced erythema was caused by applying a UV lamp (Hanoivna Kramager) to the ear of a guinea pig for 30 sec; the lamp transmitted rays with a wavelength of […], which consequently included UV-B, UV-C and UV-A rays, through a special filter.
Excipients only or a suspension containing 5 or 10% 2,4,6,8,10,12,14-hexadecaheptaenol palmitate were spread on the ear of the test animals, and the temperature increase resulting from the UV-induced erythema was measured with a thermoelectric thermometer after approx. 3 hours in the control animals and the test animals.

CC=CC=CC=CC=CC=CC=CC=CCOC(=O)CCCCCCCCCCCCCCC [2,4,6,8,10,12,14-hexadecaheptaenyl palmitate]
appearance of heat and erythema: inhibited
